In US8618159B2, “Substituted N-phenyl-bipyrrolidine carboxamides and therapeutic use thereof” (Sanofi, priority 2007, dated 2013):
Counter-ions that a name gives are not always drawn. Like-named read-outs stand apart in the source and are kept apart here.

Tests used:
[1] = target: T1, rhesus (Macacca Mulatta) H3 receptor (Macaca mulatta, UniProt Q865E1); test: Rhesus H3 radioligand binding assay ([3H]-Methylhistamine displacement, WGA SPA beads); design: species or system rhesus monkey (Macacca Mulatta); conditions: read-out: Affinity: ki in Rhesus H3 membrane
T1 construct: pcDNA5/FRT/TO (Invitrogen) containing the rhesus monkey (Macacca Mulatta) 445 amino acid H3 receptor
Description: (§1) (Genbank #AY231164). Stably transfected cultures were amplified in tissue culture flasks by standard tissue culture methods and induced to express rhesus H3 by exposure to 500 ng/ml tetracycline (Cellgro) for 24 hours. After induction, cells were dissociated from flasks utilizing Cell Stripper (Cellgro). Cells were centrifuged (1K×g, 5 min) and pellet frozen in an ethanol-dry ice bath to disrupt cell membranes. Frozen cell pellet was re-suspended in 5 mM HEPES (pH 7.4, Invitrogen) at 10 ml/1000 cm2 of harvested cells. The cell suspension was drawn through an 18 gauge needle (2-3×) followed by a 23 gauge needle (2-3×) to further disrupt cell membranes. The cell suspension was centrifuged (40K×g, 30 min). Cell membrane pellet was re-suspended in 5 mM HEPES (pH 7.4, Invitrogen) at a final protein concentration of 10 mg/ml. Rhesus H3 membranes were stored under liquid nitrogen prior to use in [3H]-Methylhistamine and GTPγS radioligand binding assays.
Rhesus H3 radioligand binding assay was performed using rhesus H3 receptor membranes (prepared as described above), [3H]-Methylhistamine (Perkin Elmer) and WGA SPA beads (wheat germ agglutinin scintillation proximity assay) beads (Amersham). The assay was performed in 96-well Opti-Plates (Packard). Each reaction contained 50 μl rhesus H3 membranes (20-30 μg total protein), 50 μl WGA SPA beads (0.1 μg) and 50 μl of 83 Ci/mmol [^3H]-Methylhistamine (final concentration 2 nM) and 50 μl of tested compound. The compounds of this invention and/or vehicle were diluted with binding buffer from 10 mM DMSO stocks. Assay plates were sealed with TopSeal (Perkin Elmer) and mixed on shaker (25° C., 1 hour). Assay plates were read on TopCount scintillation counter (Packard). Results were analyzed by Hill transformation and Ki values were determined by Cheng-Prusoff equation.

[2] = test system: rhesus H3; test: GTPγS radioligand binding assay, inhibition of rhesus H3 constitutive functional activity in cell membranes; format: biochemical, rhesus monkey (Macacca Mulatta); conditions: Table 1; relative to basal level
Description: as §1, with “Rhesus H3 membranes were prepared from the Flp-In T-REx 293 Cell Line (Invitrogen) stably transfected with pcDNA5/FRT/TO (Invitrogen) containing the rhesus monkey (Macacca Mulatta) 445 amino acid H3 receptor. (Genbank” for “(Genbank”

[3] = Table 2, stereoisomer comparison, procedure of Example 148
[4] = Table 1, [3H]-Methylhistamine 2 nM, Cheng-Prusoff

T1 sequence (Q865E1 1-445): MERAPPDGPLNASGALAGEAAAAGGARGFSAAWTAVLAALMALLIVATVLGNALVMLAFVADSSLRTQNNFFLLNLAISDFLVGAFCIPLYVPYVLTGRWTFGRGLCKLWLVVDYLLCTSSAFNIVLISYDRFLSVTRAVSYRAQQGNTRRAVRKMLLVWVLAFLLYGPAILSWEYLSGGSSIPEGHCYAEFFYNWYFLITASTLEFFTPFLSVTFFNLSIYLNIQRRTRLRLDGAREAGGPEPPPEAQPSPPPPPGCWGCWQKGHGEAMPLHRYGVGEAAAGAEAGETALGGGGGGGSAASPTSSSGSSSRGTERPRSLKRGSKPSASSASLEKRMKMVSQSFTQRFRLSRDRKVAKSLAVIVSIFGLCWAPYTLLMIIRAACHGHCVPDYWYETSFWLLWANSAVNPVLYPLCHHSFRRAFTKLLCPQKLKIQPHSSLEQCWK

Row | Ki [1, 3] [nM] | Ki [1, 4] [nM] | SMILES | Inverse Agonism: % inhibition of Basal GTPγS binding in Rhesus H3 [2] [%]
1 | 2.5 | – | Cc1cc(N2CC[C@@H](N3CCC[C@@H]3C)C2)ccc1NC(=O)c1cc(F)ccc1C [Example 11, 5-Fluoro-2-methyl-N-[2-methyl-4-(2-(2S)-methyl-[1,3′(3′S)]bipyrrolidinyl-1′-yl)-phenyl]-benzamide] | –
2 | – | 0.78 | Cc1cc(N2CC[C@H](N3CCC[C@@H]3C)C2)ccc1NC(=O)c1ccc2ccoc2c1 [Example 73, Benzofuran-6-carboxylic acid [2-methyl-4-(2(S)-methyl-[1,3′(S)]bipyrrolidinyl-1′-yl)-phenyl]-amide trifluoroacetate] | −15
3 | – | 0.77 | Cc1cc(N2CC[C@H](N3CCC[C@@H]3C)C2)ccc1NC(=O)c1ccc2[nH]ccc2c1 [Example 52, 1H-Indole-5-carboxylic acid [2-methyl-4-(2(S)-methyl-[1,3′(5)]-bipyrrolidinyl-1′-yl)-phenyl]-amide trifluoroacetate] | −17
4 | – | 2.06 | Cc1cc(N2CCC(N3CCCC3C)C2)ccc1NC(=O)c1ccc(F)cc1 (stereo not drawn) [Example 7, 4-Fluoro-N-[2-methyl-4-(2-methyl-[1,3′]bipyrrolidinyl-1′-yl)-phenyl]-benzamide] | −31
5 | – | 1.42 | Cc1cccc(C(=O)Nc2ccc(N3CC[C@H](N4CCC[C@@H]4C)C3)cc2C)n1 [Example 86, 6-Methyl-pyridine-2-carboxylic acid [2-methyl-4-(2(S)-methyl-[1,3′(S)]bipyrrolidinyl-1′-yl)-phenyl]-amide trifluoroacetate] | −18
6 | 121 | – | Cc1cc(N2CC[C@H](N3CCC[C@H]3C)C2)ccc1NC(=O)c1cc(F)ccc1C [Example 5, 5-Fluoro-2-methyl-N-[2-methyl-4-(2(2R)-methyl-[1,3′(3′S)]bipyrrolidinyl-1′-yl)-phenyl]-benzamide] | –
7 | 147 | – | Cc1cc(N2CC[C@@H](N3CCC[C@H]3C)C2)ccc1NC(=O)c1cc(F)ccc1C [Example 12, 5-Fluoro-2-methyl-N-[2-methyl-4-(2-(R)-methyl-[1,3′(R)]bipyrrolidinyl-1′-yl)-phenyl]-benzamide hydrochloride] | –
8 | 7.3 | – | Cc1cc(N2CC[C@@H](N3CCC[C@@H]3C)C2)ccc1NC(=O)c1cc(F)ccc1C [Example 3, 5-Fluoro-2-methyl-N-[2-methyl-4-(2(2S)-methyl-[1,3′(3′R)]bipyrrolidinyl-1′-yl)-phenyl]-benzamide] | –
